Measurements taken from ChEMBL document CHEMBL1201862, “PubChem BioAssay data set” (2004).
Active and inactive are the calls of the source.

Experiments:
[1] = nonselective inhibitors of cellular cAMP signaling, dose response, counter-screen for MC4R biased antagonist project, cell-based, TR-FRET cAMP detection (AID 602305); assay type: functional;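 also: U2OS cells stimulated with forskolin near its EC80 as the cAMP inducer; potency is for inhibition of forskolin-stimulated cAMP signaling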
[2] = target: T1, RNA-binding protein pos-1 (Caenorhabditis elegans, UniProt G5EF15); assay: inhibitors of POS-1/mex-3 RNA binding, dose response, biochemical, fluorescence polarization (AID 1964);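 also: purified POS-1 fused to maltose binding protein made in E. coli; potency of compounds blocking POS-1 binding to fluorescent RNA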
T1 sequence (G5EF15 whole entry): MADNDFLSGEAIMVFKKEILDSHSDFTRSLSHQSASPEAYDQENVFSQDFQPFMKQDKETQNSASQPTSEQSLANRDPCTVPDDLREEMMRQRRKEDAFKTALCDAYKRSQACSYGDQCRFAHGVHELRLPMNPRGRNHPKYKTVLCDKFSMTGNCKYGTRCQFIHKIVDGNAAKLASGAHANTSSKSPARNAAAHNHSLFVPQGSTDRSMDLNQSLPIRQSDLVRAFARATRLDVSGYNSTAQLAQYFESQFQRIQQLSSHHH

[3] = target: T2, Zinc finger protein mex-5 (Caenorhabditis elegans, UniProt Q9XUB2); assay: MEX-5/TCR-2 RNA interaction inhibitors, dose response, biochemical, C. elegans, fluorescence polarization (AID 1960)
T2 sequence (Q9XUB2 whole entry): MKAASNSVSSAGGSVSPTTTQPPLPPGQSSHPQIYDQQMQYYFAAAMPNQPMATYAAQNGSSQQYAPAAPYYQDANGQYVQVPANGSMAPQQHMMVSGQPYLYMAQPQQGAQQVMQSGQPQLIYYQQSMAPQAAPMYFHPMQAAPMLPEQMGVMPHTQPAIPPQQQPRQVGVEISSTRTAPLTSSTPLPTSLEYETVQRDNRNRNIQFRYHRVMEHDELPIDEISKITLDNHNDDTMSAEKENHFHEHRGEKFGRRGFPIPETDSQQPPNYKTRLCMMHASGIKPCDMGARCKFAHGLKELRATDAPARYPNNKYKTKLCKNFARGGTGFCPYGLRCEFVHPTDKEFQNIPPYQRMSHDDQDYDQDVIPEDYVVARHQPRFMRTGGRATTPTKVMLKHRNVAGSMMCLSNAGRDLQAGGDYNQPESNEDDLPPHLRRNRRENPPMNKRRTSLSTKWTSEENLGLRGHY

Melanocortin receptor 4 = Melanocortin receptor 4 (Homo sapiens, UniProt P32245); assay: MC4R antagonist potency on cAMP, dose response, cell-based, TR-FRET, biased antagonists (AID 602298); assay type: functional;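 also: antagonist potency against agonist-stimulated cAMP production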
Coagulation factor XII = target: T3, Coagulation factor XII (Homo sapiens, UniProt P00748); assay type: functional;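 also: activated factor XIIa alpha cleaving a fluorogenic AMC peptide substrate; inhibitor potency from loss of enzyme activity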
T3 sequence (P00748 whole entry): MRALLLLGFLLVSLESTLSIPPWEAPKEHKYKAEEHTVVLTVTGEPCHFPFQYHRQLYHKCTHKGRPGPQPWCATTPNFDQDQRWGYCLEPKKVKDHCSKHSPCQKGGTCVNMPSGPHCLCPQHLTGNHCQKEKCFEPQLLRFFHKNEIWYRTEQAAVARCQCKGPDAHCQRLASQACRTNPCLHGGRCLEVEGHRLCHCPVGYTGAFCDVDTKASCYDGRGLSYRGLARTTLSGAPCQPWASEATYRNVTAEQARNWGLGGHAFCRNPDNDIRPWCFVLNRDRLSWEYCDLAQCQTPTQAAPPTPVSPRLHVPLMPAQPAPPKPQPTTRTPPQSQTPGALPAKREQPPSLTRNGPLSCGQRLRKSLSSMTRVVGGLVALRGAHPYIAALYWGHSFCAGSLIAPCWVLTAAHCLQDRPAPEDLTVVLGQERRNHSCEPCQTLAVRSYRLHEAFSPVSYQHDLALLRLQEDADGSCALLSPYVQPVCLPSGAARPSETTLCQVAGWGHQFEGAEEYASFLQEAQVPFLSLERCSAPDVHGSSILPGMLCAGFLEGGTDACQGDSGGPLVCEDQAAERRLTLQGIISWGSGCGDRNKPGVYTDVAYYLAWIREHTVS

[4] = target: Eukaryotic translation initiation factor 4E (Mus musculus, UniProt P63073); assay: eIF4E–eIF4G protein interaction inhibitors, dose response, biochemical, TR-FRET (AID 855); assay type: functional;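 also: potency for disrupting eIF4E binding to eIF4GI seen as loss of FRET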
[5] = target: T4, Alkaline phosphatase, tissue-nonspecific isozyme (Homo sapiens, UniProt P05186); assay: human TNAP enzyme inhibitors, SAR follow-up, biochemical, luminescent, dose response (AID 1056)
T4 sequence (P05186 whole entry): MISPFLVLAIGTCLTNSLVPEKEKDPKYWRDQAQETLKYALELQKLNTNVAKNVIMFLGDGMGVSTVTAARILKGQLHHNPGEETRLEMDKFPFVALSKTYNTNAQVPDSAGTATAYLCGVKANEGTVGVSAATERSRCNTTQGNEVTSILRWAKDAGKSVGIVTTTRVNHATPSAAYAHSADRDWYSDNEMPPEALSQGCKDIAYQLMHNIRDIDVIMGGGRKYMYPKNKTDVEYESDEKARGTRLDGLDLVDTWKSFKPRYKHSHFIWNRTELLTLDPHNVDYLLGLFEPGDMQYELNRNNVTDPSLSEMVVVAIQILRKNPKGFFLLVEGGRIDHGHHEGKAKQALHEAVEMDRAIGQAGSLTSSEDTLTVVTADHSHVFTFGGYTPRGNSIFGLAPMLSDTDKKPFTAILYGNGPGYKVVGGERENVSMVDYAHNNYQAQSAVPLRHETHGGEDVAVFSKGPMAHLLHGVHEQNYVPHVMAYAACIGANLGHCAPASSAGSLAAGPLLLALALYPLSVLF

[6] = target: Glyceraldehyde-3-phosphate dehydrogenase (Homo sapiens, UniProt P04406)
[7] = target: Nuclear receptor subfamily 5 group A member 2 (Homo sapiens, UniProt O00482); assay type: functional, cell-based;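 also: HEK293T cells transfected with LRH-1 and a StAR promoter luciferase reporter; potency for inhibitors that lower LRH-1 driven reporter light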
Cytochrome P450 3A4 = Cytochrome P450 3A4 (Homo sapiens, UniProt P08684);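 also: CYP3A4 tested as one member of a cytochrome P450 panel screen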
[8] = StAR promoter reporter inhibition counter-screen, dose response, counter-screen for LRH-1 inverse agonist project, cell-based, luminescence, luciferase reporter (AID 651969); assay type: functional
Steroidogenic factor 1 = Steroidogenic factor 1 (Homo sapiens, UniProt Q13285); assay: Counterscreen for inverse agonists of the liver receptor homolog-1 (LRH-1; NR5A2): Luminescence-based cell-based high throughput dose response assay to identify inverse agonists of the Steroidogenic Factor 1 Nuclear Receptor (SF1; NR5A1).; assay type: functional
[9] = HeLa cell cytotoxicity, dose response, cytotoxicity control for MgcRacGAP inhibitor project (AID 624300); assay type: functional
[10] = target: T5, Rac GTPase-activating protein 1 (Homo sapiens, UniProt Q9H0H5); assay: MgcRacGAP GTPase-activating activity inhibitors, confirmation, biochemical, ADP Hunter fluorescence, primary and confirmatory (AID 624330); assay type: functional
T5 sequence (Q9H0H5 whole entry): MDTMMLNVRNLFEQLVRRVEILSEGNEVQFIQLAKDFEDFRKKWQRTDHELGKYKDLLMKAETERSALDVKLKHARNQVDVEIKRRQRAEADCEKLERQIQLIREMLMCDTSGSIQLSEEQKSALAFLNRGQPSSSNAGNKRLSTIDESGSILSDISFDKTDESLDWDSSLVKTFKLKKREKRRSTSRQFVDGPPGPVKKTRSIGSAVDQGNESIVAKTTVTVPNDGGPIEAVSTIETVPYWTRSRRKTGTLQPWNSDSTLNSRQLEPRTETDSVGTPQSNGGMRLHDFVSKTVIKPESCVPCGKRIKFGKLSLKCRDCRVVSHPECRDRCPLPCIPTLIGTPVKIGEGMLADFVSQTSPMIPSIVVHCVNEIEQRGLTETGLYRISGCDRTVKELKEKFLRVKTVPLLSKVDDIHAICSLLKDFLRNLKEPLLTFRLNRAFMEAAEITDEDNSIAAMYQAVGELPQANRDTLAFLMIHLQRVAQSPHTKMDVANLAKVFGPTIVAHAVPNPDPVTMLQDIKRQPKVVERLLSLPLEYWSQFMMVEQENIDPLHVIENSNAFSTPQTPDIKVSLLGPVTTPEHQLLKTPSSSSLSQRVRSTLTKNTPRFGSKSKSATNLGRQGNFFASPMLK

[11] = CRF-BP/CRF-R2 complex antagonists, dose response, cell-based, uHTS hits, 384-well (AID 651639); assay type: functional, Homo sapiens; conditions: read-out: IC50_Mean
[12] = target: T6, Corticotropin-releasing factor receptor 2/Corticotropin-releasing factor-binding protein (Homo sapiens, UniProt P24387+Q13324); assay: Dose Response confirmation of uHTS hits for small molecule antagonists of the CRF-binding protein and CRF-R2 receptor complex.; assay type: functional; conditions: read-out: IC50_Mean
T6 sequence (Q13324 whole entry): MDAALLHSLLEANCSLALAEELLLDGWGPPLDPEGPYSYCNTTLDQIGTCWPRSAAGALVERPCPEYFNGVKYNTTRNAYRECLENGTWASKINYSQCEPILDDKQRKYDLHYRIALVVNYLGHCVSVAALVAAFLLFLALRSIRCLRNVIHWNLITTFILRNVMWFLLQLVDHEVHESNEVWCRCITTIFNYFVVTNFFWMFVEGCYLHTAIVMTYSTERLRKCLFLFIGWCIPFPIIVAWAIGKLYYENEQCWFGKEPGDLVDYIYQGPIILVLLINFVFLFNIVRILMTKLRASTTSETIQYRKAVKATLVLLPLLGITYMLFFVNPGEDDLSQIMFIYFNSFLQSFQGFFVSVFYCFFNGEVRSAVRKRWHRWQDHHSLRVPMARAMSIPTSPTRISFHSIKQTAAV
T6 sequence (P24387 whole entry): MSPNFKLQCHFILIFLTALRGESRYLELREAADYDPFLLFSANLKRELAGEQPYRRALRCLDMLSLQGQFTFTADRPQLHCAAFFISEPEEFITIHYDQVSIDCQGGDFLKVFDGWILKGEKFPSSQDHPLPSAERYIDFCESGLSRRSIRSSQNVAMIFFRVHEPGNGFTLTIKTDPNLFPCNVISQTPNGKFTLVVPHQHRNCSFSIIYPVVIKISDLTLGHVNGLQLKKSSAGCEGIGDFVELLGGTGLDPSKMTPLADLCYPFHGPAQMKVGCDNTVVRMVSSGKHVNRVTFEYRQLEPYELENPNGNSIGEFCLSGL

[13] = target: T6, Corticotropin-releasing factor receptor 2/Corticotropin-releasing factor-binding protein; assay: activators of CRF receptor 2 with binding protein – uHTS hits, confirmation (AID 602473); assay type: functional; conditions: read-out: EC50_Mean
[14] = A Cell Based Secondary Assay to Explore Cytotoxicity in THP-1 Cells of Compounds that Modulate Mycobacterium tuberculosis in Media Containing Glycerol versus Media without Glycerol (2).; assay type: functional
[15] = Vero cell cytotoxicity, cytotoxicity control for M. tuberculosis inhibitor project, purified and synthesized samples, set 3 (AID 504684); assay type: functional
[16] = target: Photoreceptor-specific nuclear receptor (Homo sapiens, UniProt Q9Y5X4); assay type: functional, cell-based;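 also: CHO-S cells with Gal4-NCOR and VP16-NR2E3 two-hybrid luciferase reporter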
[17] = target: Heat shock protein HSP 90-alpha (Homo sapiens, UniProt P07900); assay type: functional, organism-based
[18] = Shn3 3'UTR reporter inhibitors, dose response, cell-based, Clone20 osteoblasts, firefly luciferase, cherry-picked (AID 624132); assay type: functional;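 also: firefly luciferase luminescence from reporter carrying the Shn3 3'UTR in osteoblasts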
[19] = HepG2 cell cytotoxicity, dose response, cytotoxicity control for Shn3 inhibitor project, CellTiter-Glo, cherry-picked (AID 624134); assay type: functional, cell-based
[20] = control 3'UTR Renilla luciferase suppression, dose response, counter-screen for Shn3 inhibitor project, cell-based, Clone20-Shn3RL, cherry-picked (AID 624133); assay type: functional

Sequence of Glyceraldehyde-3-phosphate dehydrogenase (P04406 whole entry): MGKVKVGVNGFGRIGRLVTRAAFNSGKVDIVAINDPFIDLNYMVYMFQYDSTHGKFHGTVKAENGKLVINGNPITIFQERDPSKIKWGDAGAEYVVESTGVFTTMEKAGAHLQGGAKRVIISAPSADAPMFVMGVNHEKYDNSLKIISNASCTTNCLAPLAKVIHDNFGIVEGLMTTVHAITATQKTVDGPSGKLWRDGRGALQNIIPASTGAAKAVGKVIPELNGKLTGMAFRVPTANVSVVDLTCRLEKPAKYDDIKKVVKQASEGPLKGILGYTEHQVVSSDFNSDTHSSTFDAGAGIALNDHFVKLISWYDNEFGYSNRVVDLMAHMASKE
Sequence of Nuclear receptor subfamily 5 group A member 2 (O00482 whole entry): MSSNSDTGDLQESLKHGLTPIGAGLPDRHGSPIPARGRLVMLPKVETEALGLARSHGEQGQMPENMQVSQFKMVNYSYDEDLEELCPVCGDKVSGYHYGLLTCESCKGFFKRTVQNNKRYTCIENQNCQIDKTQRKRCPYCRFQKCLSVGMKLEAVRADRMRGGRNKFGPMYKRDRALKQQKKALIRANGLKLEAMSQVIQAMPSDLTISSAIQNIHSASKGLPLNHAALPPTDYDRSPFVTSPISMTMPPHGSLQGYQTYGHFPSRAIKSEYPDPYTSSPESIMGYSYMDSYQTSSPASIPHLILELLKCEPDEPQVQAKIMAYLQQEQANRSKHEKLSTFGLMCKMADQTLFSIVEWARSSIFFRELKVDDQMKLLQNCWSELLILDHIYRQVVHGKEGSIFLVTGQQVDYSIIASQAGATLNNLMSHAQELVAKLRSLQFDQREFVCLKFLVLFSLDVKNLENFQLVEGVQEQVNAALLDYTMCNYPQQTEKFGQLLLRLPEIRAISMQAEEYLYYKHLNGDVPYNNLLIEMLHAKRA
Sequence of Steroidogenic factor 1 (Q13285 whole entry): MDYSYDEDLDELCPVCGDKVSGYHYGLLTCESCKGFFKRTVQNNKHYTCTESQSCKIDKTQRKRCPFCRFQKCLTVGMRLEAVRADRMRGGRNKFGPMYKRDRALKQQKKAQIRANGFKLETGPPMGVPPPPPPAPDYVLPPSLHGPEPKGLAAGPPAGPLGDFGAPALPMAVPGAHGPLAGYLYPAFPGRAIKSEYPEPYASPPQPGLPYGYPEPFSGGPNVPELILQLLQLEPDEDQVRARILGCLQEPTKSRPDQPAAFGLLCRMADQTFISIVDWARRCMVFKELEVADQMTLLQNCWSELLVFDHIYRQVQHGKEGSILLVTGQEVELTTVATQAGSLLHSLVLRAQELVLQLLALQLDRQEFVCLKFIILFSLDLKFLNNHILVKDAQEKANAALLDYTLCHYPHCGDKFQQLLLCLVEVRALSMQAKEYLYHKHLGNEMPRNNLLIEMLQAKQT
Sequence of Melanocortin receptor 4 (P32245 whole entry): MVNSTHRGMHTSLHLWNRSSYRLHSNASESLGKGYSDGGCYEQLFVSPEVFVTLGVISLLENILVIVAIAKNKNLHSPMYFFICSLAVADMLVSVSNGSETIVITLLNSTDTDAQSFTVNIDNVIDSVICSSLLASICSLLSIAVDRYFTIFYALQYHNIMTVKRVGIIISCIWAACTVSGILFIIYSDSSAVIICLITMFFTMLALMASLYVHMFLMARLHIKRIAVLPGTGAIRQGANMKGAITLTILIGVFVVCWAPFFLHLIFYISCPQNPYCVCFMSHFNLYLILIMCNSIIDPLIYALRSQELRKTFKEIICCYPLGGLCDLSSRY
Sequence of Eukaryotic translation initiation factor 4E (P63073 whole entry): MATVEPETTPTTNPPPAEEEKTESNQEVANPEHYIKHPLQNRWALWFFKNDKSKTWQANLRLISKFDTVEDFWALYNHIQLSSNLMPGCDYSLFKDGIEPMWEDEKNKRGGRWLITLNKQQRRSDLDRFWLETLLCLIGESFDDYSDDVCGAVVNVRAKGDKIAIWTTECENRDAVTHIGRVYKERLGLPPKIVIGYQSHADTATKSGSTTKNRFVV
Sequence of Photoreceptor-specific nuclear receptor (Q9Y5X4 whole entry, the tested form may be a part): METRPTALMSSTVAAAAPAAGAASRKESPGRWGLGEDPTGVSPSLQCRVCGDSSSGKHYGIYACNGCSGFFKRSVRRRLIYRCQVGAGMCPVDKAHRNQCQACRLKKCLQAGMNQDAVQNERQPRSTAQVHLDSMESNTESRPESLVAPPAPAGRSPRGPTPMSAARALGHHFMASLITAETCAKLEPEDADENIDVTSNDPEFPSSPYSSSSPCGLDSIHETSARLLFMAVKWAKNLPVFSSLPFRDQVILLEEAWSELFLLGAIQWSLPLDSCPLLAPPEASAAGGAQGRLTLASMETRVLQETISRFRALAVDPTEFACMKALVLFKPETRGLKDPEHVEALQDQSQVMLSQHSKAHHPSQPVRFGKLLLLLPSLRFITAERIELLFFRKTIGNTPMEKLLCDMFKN
Sequence of Cytochrome P450 3A4 (P08684 whole entry): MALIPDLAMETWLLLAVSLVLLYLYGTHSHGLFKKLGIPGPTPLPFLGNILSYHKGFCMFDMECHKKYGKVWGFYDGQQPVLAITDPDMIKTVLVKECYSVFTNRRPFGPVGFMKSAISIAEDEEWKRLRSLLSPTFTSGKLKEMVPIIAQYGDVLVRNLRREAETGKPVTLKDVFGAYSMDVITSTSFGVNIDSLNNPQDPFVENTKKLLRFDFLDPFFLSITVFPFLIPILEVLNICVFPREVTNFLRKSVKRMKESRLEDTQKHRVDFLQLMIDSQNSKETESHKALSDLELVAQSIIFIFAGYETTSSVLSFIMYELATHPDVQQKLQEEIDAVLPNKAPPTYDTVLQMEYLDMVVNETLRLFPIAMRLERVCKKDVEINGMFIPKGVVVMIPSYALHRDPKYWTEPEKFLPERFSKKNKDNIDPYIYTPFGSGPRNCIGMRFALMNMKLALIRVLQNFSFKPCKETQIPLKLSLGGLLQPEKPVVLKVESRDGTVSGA

CCOC(=O)CSc1nc2ccc(Nc3nc(N4CCOCC4)nc(N4CCOCC4)n3)cc2s1
IC50 [1]: > 64.6 µM (inactive) | EC50 [2]: > 300 µM (not active) | EC50 [3]: > 300 µM (not active) | IC50 (Melanocortin receptor 4): > 64.6 µM (inactive)

COc1ccc(C2=CSC3=NCCN23)cc1F
IC50 (Coagulation factor XII): > 50 µM (inactive) | IC50 [4]: > 64 µM (inactive)

COc1ccc(S(=O)(=O)Nc2ccncc2)cc1OC
IC50 [5]: > 100 µM (inactive) | IC50 [6]: > 100 µM (not active)

Cc1sc(NC(=O)C(C)C)c(C(=O)Nc2ccccc2)c1C
IC50 [7]: 11.6 µM (inactive) | AC50 (Cytochrome P450 3A4): inconclusive | IC50 [8]: 35.9 µM (inactive) | IC50 (Steroidogenic factor 1): 3.85 µM (active)

COc1ccc(N2CCN(CC(O)COC(c3ccc(F)cc3)c3ccc(F)cc3)CC2)cc1 (configuration not stated)
CC50 [9]: 100 µM (active) | IC50 [10]: 92.8 µM (active)

COc1ccccc1Nc1nc(N)nc(CSC(=S)N2CC(C)CC(C)C2)n1 (configuration not stated)
IC50 [11]: > 20 µM (inactive) | IC50 [12]: 32 µM (active) | EC50 [13]: > 53 µM (inactive)

CCCOc1ccc(C(=O)NC(C)C(=O)O)cc1 (configuration not stated)
IC50 (Coagulation factor XII): > 50 µM (inactive)

Cc1ccn2c(=O)nc(SCC(=O)Nc3ccc4c(c3)OCCO4)nc2c1
IC50 [7]: 35.9 µM (inactive) | IC50 [8]: 35.9 µM (inactive) | IC50 (Steroidogenic factor 1): 3.98 µM (active)

Cc1ccc(S(=O)(=O)Nc2nc3ccccc3nc2Cl)cc1
IC50 [5]: > 100 µM (inactive) | IC50 [6]: > 100 µM (not active)

O=C1c2c(Cl)c(Cl)c(Cl)c(Cl)c2C(=O)N1c1nnc(CCc2ccccc2)[nH]1
IC50 [5]: > 100 µM (inactive) | IC50 [6]: > 100 µM (not active)

CCC(C)NC(=O)C1CN(S(=O)(=O)c2ccccc2)CCN1S(=O)(=O)c1ccccc1 (configuration not stated)
IC50 (Coagulation factor XII): > 50 µM (inactive)

CCOC(=O)/C(C#N)=C\c1ccc2c(c1)OCO2
IC50 [11]: > 20 µM (inactive) | IC50 [12]: 2.02 µM (active) | EC50 [13]: > 53 µM (inactive)

Cc1cc(Br)ccc1NC(=O)CSc1nnc(CN2CCOCC2)n1C
IC50 [7]: 40.2 µM (inactive) | IC50 [8]: 35.9 µM (inactive) | IC50 (Steroidogenic factor 1): 24.7 µM (inactive)

NS(=O)(=O)c1ccc(NC(=O)COC(=O)c2ncc(Cl)c(Cl)c2Cl)cc1
IC50 [1]: > 64.6 µM (inactive) | IC50 (Melanocortin receptor 4): > 64.6 µM (inactive)

CCn1c2ccccc2c2cc(NC(=O)CSc3nc(C)cc(=O)[nH]3)ccc21
CC50 [14]: 41.1 µM (active) | CC50 [15]: 56 µM (active)

O=C(OC12CC3CC(CC(C3)C1)C2)c1ccc(NCc2cc(O)ccc2O)cc1
IC50 [16]: 4.09 µM (active) | AC50 [17]: 5.15 µM (active) | AC50 [18]: 2.33 µM (active) | AC50 [19]: 53 µM (active) | AC50 [20]: 3.99 µM (active)

CN(Cc1ccccc1)c1nc2c(c(=O)[nH]c(=O)n2C)n1CCCSc1ncccn1
IC50 (Coagulation factor XII): > 50 µM (inactive)
